Assay results: patent EP4722219A1 (Gan & Lee Pharmaceuticals Co., Ltd., priority 2023, dated 2024)
Numbering of substitutions follows the chain as printed.

Tests used:
Type in all cases: cell-based
[1] = tested on: LNCaP cells; experiment: Inhibition of LNCaP cell proliferation (WST-8); details: Homo sapiens, LNCaP FGC cells, 96 hours
Method: The inhibitory activity of compounds disclosed in the present invention on LNCaP cell proliferation
The cells were cultured overnight in a 37°C, 5% CO2 cell incubator. […] The final concentration of the compound was 9 concentration points of 5-fold serial dilution starting from 10 µM. […] The cells were cultured in a cell culture incubator at 37°C and 5% CO2 for 96 hours. On the sixth day, the 96-well cell culture plate was removed, and 1/10 volume of WST-8 (Beytime, C0040) reagent was added to each well. The absorbance at 450 nm was detected using a microplate reader (TECAN, F50).

[2] = molecular target: T1, AR protein (Homo sapiens, UniProt P10275, T878A); experiment: AR protein degradation in LNCaP cells (Western blot); details: 8 hours; for percent AR protein degradation at a fixed concentration at 0.01 µM: 10 nM; for percent AR protein degradation at a fixed concentration at 0.1 µM: 100 nM
T1 construct: host or cells: LNCaP FGC
T1 sequence (P10275 1-920 T878A): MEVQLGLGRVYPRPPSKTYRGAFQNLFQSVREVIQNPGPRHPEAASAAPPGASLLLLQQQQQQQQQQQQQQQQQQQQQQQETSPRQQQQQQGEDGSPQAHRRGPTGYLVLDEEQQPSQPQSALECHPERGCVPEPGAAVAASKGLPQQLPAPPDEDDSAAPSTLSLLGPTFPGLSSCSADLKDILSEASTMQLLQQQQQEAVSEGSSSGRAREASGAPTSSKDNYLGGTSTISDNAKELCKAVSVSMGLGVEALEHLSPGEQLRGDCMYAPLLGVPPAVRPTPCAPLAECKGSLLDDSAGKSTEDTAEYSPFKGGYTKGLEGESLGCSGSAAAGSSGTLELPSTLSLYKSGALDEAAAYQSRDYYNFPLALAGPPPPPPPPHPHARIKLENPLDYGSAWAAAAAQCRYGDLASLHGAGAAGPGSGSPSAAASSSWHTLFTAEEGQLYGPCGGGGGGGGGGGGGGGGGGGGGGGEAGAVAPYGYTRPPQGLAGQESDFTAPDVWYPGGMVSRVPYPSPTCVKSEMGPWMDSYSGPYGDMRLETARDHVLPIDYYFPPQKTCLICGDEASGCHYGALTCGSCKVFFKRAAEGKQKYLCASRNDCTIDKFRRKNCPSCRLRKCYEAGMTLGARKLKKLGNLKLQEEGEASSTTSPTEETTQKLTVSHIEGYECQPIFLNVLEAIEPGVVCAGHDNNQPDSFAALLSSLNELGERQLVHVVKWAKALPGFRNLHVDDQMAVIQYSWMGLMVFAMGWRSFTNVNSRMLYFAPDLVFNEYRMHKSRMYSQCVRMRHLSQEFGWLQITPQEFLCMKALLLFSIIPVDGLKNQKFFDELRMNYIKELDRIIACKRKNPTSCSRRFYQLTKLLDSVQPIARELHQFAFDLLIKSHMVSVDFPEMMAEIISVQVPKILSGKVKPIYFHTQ
Method: At the same time, the corresponding solvent control was set and cultured for 8 hours. After 8 hours of culture, the culture medium was removed, the cells were washed with PBS, and RIPA lysis buffer containing 1% Protease Inhibitor Cocktail was added. After lysis and centrifugation, the total protein extract was obtained, and the protein concentration in the extract was detected by BCA method. Protein electrophoresis was performed using SDS-PAGE, and then the protein was transferred to a PVDF (Millipore Sigma catalog number PSRP010R5) membrane at a constant voltage of 100V for 60 minutes. The PVDF membrane was placed in a 5% milk powder 1 ×TBST solution and blocked at room temperature for 1 hour. […] The primary antibody solution was discarded and the PVDF membrane was washed with 1×TBST for 5 minutes each time, for three times. […] The secondary antibody solution was discarded and the PVDF membrane was washed with 1 ×TBST for 5 minutes each time, for three times. A dual-color infrared laser imaging system (Licor catalog number Odyssey CLX) was used for Western membrane imaging. The Image Studio software was used to analyze the grayscale of the bands. GAPDH protein bands were also detected for each sample as the reference. The AR protein degradation rate of the compound and the positive control sample was calculated based on the grayscale of the protein bands.

[3] = tested on: VCaP cells; experiment: Inhibition of VCaP cell proliferation (WST-8); details: Homo sapiens, 168 hours
Method: On the first day of the experiment, VCaP cells were seeded at a density of 15,000 cells/well in a 96-well plate using DMEM medium containing 10% fetal bovine serum, with 100µL of cell suspension per well, and cultured overnight in a cell incubator at 37°C and 5% CO2. On the second day, 100µL of the compound of the present invention and the positive control ARV-110 (source: Anaiji) prepared in culture medium at different concentrations were added to each well. The final concentration of the compound was 9 concentration points of 5-fold serial dilution starting from 10 µM. […] On the ninth day, the 96-well cell culture plate was removed and 1/10 volume of WST-8 (Beytime, C0040) reagent was added to each well. The absorbance at 450nm was measured using a microplate reader (TECAN, F50).

[4] = molecular target: T2, AR protein (Homo sapiens, UniProt P10275); experiment: AR protein degradation in VCaP cells (Western blot); details: 8h
T2 construct: host or cells: VCaP
T2 sequence (P10275 1-920): T1 sequence (P10275 1-920 T878A) with A878T
Method: The degradation activity of the compounds disclosed in the present invention on AR protein in VCaP cells (cell source: ATCC)
The AR-positive human prostate cancer cells VCaP cultured in DMEM (GiBco catalog number 11995-065) containing 10% FBS (Hyclone catalog number SH30406.05) was inoculated in a six-well microplate (Thermo catalog number 140675) at a concentration of 3×10^5 cells/ well. After being cultured overnight in a carbon dioxide incubator (ESCO), the prepared compound of the present invention and the positive control sample ARV-766 (Annaiji) solution of different concentrations were added at a volume of 1 µL/well to make the final concentrations of the compound and the positive control sample reach 5nM and 0.5nM, respectively. At the same time, the corresponding solvent control was set and cultured for 8h. After 8h of culture, the culture medium was removed, and the cells were washed with PBS. RIPA lysis buffer containing 1% Protease Inhibitor Cocktail was added. After lysis and centrifugation, a total protein extract was obtained, and the protein concentration in the extract was detected by BCA method. Protein electrophoresis was performed using SDS-PAGE, and then the protein was transferred to a PVDF (Millipore Sigma catalog number PSRP010R5) membrane at a constant voltage of 100V for 60min. The PVDF membrane was placed in a 5% milk powder 1×TBST solution and blocked at room temperature for 1h. The primary antibody solution (Anti-Androgen receptor, Cell Signaling Technology catalog number: 5153S; 1:2000 dilution) was prepared and was incubated at 4°C overnight. The primary antibody solution was discarded and the PVDF membrane was washed with 1×TBST for 5 minutes each time, for three times. The secondary antibody solution (Thermo catalog number SA5-35571; 1:7500 dilution) was prepared and was incubated at room temperature for 1 hour. The secondary antibody solution was discarded and the PVDF membrane was washed with 1×TBST for 5 minutes each time, for three times. A dual-color infrared laser imaging system (Licor catalog number Odyssey CLX) was used for Western membrane imaging. Image Studio software was used to analyze the grayscale of the bands. GAPDH protein bands were also detected for each sample as the reference. The AR protein degradation rate of the compound and the positive control sample was calculated based on the grayscale of the protein bands.
Table 7 Degradation rate of AR protein in VCaP cells by the compounds disclosed in the present invention

Structure (SMILES)	IC50 [1] [µM]	percent AR protein degradation at a fixed concentration at 0.01 µM [2] [%]	percent AR protein degradation at a fixed concentration at 0.1 µM [2] [%]	IC50 [3] [µM]	AR protein degradation rate at fixed concentration (%) at 0.0005 µM ([4]; 0.5 nM) [%]	AR protein degradation rate at fixed concentration (%) at 0.005 µM ([4]; 5 nM) [%]
C[C@H]1CC2(CCN(c3ccc(C(=O)N4CCC(CN5CCN6c7ccc(C(=O)N[C@H]8CCC(=O)NC8=O)c(F)c7OC[C@H]6C5)CC4)cc3)CC2)CN1c1ccc(C#N)c(Cl)c1 [A-P-62, (R)-3-((1-(4-((S)-2-(3-chloro-4-cyanophenyl)-3-methyl-2,8-diazaspiro[4.5]decan-8-yl)benzoyl)piperidin-4-yl)methyl)-N-((S)-2,6-dioxopiperidin-3-yl)-7-fluoro-1,2,3,4,4a,5-hexahydrobenzo[b]pyrazi no[1,2-d][1,4]oxazine-8-carboxamide]	9.54	47	72	0.45	–	–
COc1cc2c(cc1C(=O)N[C@H]1CCC(=O)NC1=O)OC[C@H]1CN(CC3CCN(C(=O)c4ccc(N5CCC6(CC5)C[C@H](C)N(c5ccc(C#N)c(Cl)c5)C6)cc4)CC3)CCN21 [A-P-76]	2.84	–	–	0.078	–	–
C[C@H]1CC2(CCN(c3ccc(N4CCC(CN5CCN6c7cc(F)c(C(=O)N[C@H]8CCC(=O)NC8=O)cc7OC[C@H]6C5)CC4)cc3)CC2)CN1c1ccc(C#N)c(Cl)c1 [A-P-59, (R)-3-((1-(4-((S)-2-(3-chloro-4-cyanophenyl)-3-methyl-2,8-diazaspiro[4.5]decan-8-yl)phenyl)piperidin-4-yl)methyl)-N-((S)-2,6-dioxopiperidin-3-yl)-9-fluoro-1,2,3,4,4a,5-hexahydrobenzo[b]pyrazi no[1,2-d][1,4]oxazine-8-carboxamide]	0.15	–	–	0.16	–	–
COc1cc2c(cc1C(=O)N[C@H]1CCC(=O)NC1=O)OC[C@H]1CN(CC3CCN(c4ccc(N5CCC6(CC5)C[C@H](C)N(c5ccc(C#N)c(Cl)c5)C6)cc4)CC3)CCN21 [A-P-75]	0.35	–	–	0.042	–	–
COc1cc(O[C@H]2C(C)(C)[C@H](NC(=O)c3ccc(N4CCC(CN5CCC6(CC5)COc5c6ccc6c5n(C)c(=O)n6C5CCC(=O)NC5=O)CC4)cc3)C2(C)C)ccc1C#N (some centres unmarked) [A-P-28]	20.7	64	32	–	80	80
C[C@H]1CC2(CCN(c3ccc(C(=O)N4CCC(CN5CCC6(CC5)Cc5ccc(NC7CCC(=O)NC7=O)cc5O6)CC4)cc3)CC2)CN1c1ccc(C#N)c(Cl)c1 (stereo partly drawn) [A-P-94, 2-chloro-4-((3S)-8-(4-(4-((6-((2,6-dioxopiperidin-3-yl)amino)-3H-spiro[benzofuran-2,4'-piperidin]-1'-yl)methyl)piperidin-1-carbonyl)phenyl)-3-methyl-2,8-diazaspiro[4.5]decan-2-yl)benzonitrile]	0.39	–	–	0.0015	–	–
C[C@H]1CC2(CCN(c3ccc(C(=O)N4CCC(CN5CCC6(CC5)COc5cc(NC7CCC(=O)NC7=O)ccc56)CC4)cc3)CC2)CN1c1ccc(C#N)c(Cl)c1 (some centres unmarked) [A-P-87, 2-chloro-4-((3 S)-8-(4-(4-((6-((2,6-dioxopiperidin-3-yl)amino)-2H-spiro[benzofuran-3,4'-piperidin]-1'-yl)methyl)piperidin-1-carbonyl)phenyl)-3-methyl-2,8-diazaspiro[4.5]decan-2-yl)benzonitrile]	0.14	–	–	0.0014	–	–
C[C@H]1CC2(CCN(c3ccc(C(=O)N4CCC(CN5CCN6c7cc(F)c(C(=O)N[C@H]8CCC(=O)NC8=O)cc7OC[C@H]6C5)CC4)cc3)CC2)CN1c1ccc(C#N)c(Cl)c1 [A-P-60]	0.69	–	–	0.94	–	–
C[C@H]1CC2(CCN(c3ccc(C(=O)N4CCC(CN5CCC6(CC5)COc5ccc(NC7CCC(=O)NC7=O)cc56)CC4)cc3)CC2)CN1c1ccc(C#N)c(Cl)c1 (some centres unmarked) [A-P-98, 2-chloro-4-((3 S)-8-(4-(4-((5-((2,6-dioxopiperidin-3-yl)amino)-2H-spiro[benzofuran-3,4'-piperidin]-1'-yl)methyl)piperidin-1-carbonyl)phenyl)-3-methyl-2,8-diazaspiro[4.5]decan-2-yl)benzonitrile]	0.43	–	–	0.006	–	–
